Laboratory results reported in patent US5688913A, “CS-1 peptidomimetics, compositions and methods of using the same” (Cytel Corporation, priority 1995, dated 1997).
Like-named read-outs stand apart in the source and are kept apart here. Square brackets hold non-standard residues; d marks the D form. Peptide text beside a SMILES is read from it. * marks the point of attachment. code Z = Europium label (diethylenetriaminepentaacetatoeuropium); NHOctadecyl = CCCCCCCCCCCCCCCCCCN*; NHPhenethyl = c1ccc(CCN*)cc1; Morpholide = C1CN(*)CCO1; PhAc = O=C(Cc1ccccc1)*; Ahx = NCCCCCC(=O)O; NHNH2 = NN*

How the values were obtained:
[1] = Elices et al. 1993; by proteolytic degradation; cited from earlier work
[2] = tested on: murine contact hypersensitivity; settings: cited from earlier work
[3] = Retention of potency in PBS containing 10 percent serum; settings: PBS at 7.2-7.4 containing 10 percent mouse or human serum
[4] = tested on: New Zealand white rabbits; assay: Treatment of asthmatic rabbits (house dust mite antigen challenge, crossover); type: in vivo, rabbit
Description: Six New Zealand white rabbits were immunized with house dust mite antigen from birth through four months of age. Upon immunization, three rabbits received a single nebulizer administration of the inhibitor peptide N-phenylacetyl-Leu-Asp-Phe-morpholinamide in aqueous 50 percent ethanol as diluent in an amount of 100 mg/kg, and the other three received diluent alone. All of the rabbits were challenged with house dust mite antigen about 15-30 minutes after administration of the peptide, with those animals not receiving peptide serving as controls.
Once immunized and challenged, the inflammatory state subsides to a basal level within about three weeks. The three animals used as controls were thereafter used as subjects for receipt of an inhibitor peptide, and the three rabbits that initially received the peptide can serve as controls.
Such a crossover study was done here. Thus, the three initial control rabbits were treated with the above inhibitor peptide in the above diluent at a time more than three weeks after the above study, and the three previous recipients of the peptide were administered the diluent alone. All six were than challenged again.
Initial pulmonary function, measured by dynamic compliance (Cdyn) and lung resistance (RL), and bronchoalveolar lavage (BAL) to obtain an effector cell count, here eosinophils, were conducted prior to administration of the peptide or diluent for both portions of this crossover study. Similar assays were then taken one-half hourly after challenge for six hours (early phase allergic reaction) and at 24 hours after challenge (late stage allergic reaction) for both portions of this study.
These studies were conducted by Dr. W. J. Metzger of East Carolina University, Greenville, N.C. as described by W. J. Metzger in CRC Handbook of Late Phase Reactions, W. Dorsch, ed., Chapter 35, CRC Press, Boca Raton, Fla. (1990) pages 347-362.
The results of this study for the pulmonary function parameters are shown in FIG. 4A and FIG. 4B, in which data for the challenged, inhibitor peptide-treated animals are shown as open circles and data for the challenged, untreated, control animals are shown in blackened circles.

VLA-4 [5] = molecular target: T1, VLA-4 (Homo sapiens, UniProt P05556+P13612); assay: cell-based; type: cell-based; design: host or cells: Jurkat (human T lymphoblastic line)
How it was run: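 51Cr-labelled Jurkat cells (human T lymphoblastic) were preincubated 30 min at about 22 °C with peptide, then allowed to bind 30 min at 37 °C to wells coated with CS-1 peptide or CS-1-OVA. After washing, bound cells were lysed with SDS and counted. IC50 is the peptide concentration halving binding, normalized to plate controls.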

Water solubility = type: physicochemical
VLA-4 [6] = molecular target: T1, VLA-4; settings: cited from earlier work
[7] = 100 mg/kg single nebulizer administration, early phase 2-4 hours, versus challenged controls
[8] = 100 mg/kg single nebulizer administration, late phase 24 hours, versus challenged controls
[9] = normalized IC50 relative to standard peptide of SEQ ID NO:3 (=1), about one-tenth or less of the standard is assigned zero

T1 sequence (P13612 34-1032): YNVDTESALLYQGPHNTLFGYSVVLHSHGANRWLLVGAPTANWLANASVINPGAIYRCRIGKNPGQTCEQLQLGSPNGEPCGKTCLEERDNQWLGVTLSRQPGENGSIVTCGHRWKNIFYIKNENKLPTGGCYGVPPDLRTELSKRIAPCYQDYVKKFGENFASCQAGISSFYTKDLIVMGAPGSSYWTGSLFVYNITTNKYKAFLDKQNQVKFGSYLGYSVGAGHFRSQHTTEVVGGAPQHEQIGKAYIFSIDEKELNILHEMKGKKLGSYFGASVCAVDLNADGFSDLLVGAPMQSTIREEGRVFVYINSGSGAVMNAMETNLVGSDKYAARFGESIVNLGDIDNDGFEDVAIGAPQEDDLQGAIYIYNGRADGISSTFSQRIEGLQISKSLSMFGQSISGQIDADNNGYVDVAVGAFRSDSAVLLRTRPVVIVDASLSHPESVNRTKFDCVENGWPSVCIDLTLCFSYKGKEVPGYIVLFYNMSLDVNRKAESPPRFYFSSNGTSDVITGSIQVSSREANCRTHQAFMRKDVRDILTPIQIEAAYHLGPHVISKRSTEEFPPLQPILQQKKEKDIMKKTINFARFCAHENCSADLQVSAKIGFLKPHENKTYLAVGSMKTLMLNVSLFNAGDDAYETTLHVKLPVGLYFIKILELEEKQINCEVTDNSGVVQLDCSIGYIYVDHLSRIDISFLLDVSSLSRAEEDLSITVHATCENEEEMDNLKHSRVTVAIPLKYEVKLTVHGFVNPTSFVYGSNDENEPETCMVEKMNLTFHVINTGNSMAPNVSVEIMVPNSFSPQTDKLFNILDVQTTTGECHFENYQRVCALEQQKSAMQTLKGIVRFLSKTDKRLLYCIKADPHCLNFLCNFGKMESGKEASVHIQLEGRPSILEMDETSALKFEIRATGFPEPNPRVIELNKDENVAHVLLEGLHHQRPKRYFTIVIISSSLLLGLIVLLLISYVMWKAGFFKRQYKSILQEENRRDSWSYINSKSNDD
T1 sequence (P05556 21-798): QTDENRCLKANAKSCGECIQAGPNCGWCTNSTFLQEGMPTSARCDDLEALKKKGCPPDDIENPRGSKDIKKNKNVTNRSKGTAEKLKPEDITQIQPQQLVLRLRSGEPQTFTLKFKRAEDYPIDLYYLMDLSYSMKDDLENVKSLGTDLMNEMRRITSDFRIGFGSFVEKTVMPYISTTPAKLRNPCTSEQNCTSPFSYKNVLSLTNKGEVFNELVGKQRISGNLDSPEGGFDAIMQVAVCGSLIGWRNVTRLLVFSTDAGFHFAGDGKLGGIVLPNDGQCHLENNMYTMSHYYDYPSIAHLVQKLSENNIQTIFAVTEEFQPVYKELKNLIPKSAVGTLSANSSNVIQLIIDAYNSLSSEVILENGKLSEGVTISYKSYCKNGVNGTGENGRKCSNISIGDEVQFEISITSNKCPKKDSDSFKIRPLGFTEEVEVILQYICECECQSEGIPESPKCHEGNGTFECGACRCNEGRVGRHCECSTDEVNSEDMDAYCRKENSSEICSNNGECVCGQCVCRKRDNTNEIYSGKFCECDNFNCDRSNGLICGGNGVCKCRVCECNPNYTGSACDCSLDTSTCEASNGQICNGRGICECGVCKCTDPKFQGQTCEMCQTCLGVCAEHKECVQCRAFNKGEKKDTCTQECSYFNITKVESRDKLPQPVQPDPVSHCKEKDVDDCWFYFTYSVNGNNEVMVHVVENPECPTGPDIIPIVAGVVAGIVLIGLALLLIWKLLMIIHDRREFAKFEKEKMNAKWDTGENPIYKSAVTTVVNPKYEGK

## CC[C@H](C)[C@H](NC(=O)[C@H](CCC(=O)O)NC(=O)[C@@H]1CCCN1C(=O)CNC(=O)[C@H](Cc1c[nH]cn1)NC(=O)[C@H](CC(C)C)NC(=O)[C@H](CC(N)=O)NC(=O)[C@@H]1CCCN1C(=O)[C@H](Cc1c[nH]cn1)NC(=O)[C@@H]1CCCN1C(=O)[C@H](CC(C)C)NC(=O)[C@@H](NC(=O)[C@@H](NC(=O)[C@H](CC(C)C)NC(=O)[C@H](CCC(N)=O)NC(=O)[C@@H]1CCCN1C(=O)[C@H](CC(C)C)NC(=O)[C@H](CCC(=O)O)NC(=O)[C@@H](N)CC(=O)O)C(C)C)[C@@H](C)O)C(=O)N[C@@H](CC(C)C)C(=O)N[C@@H](CC(=O)O)C(=O)N[C@H](C(=O)N1CCC[C@H]1C(=O)N[C@@H](CO)C(=O)N[C@H](C(=O)O)[C@@H](C)O)C(C)C [CS-1 peptide] (H-DELPQLVTLPHPNLHGPEILDVPST-OH)
[1]
  clearance from blood circulation: rapidly cleared
[2]; Elices et al. 1993
  inhibition of contact hypersensitivity: unable to reproduce inhibition
[2]; Ferguson et al. 1991
  inhibition of recruitment of T lymphocytes to skin inflammatory sites: partially inhibited

## CC(C)C[C@H](NC(=O)Cc1ccccc1)C(=O)N[C@@H](CC(=O)O)C(=O)N[C@@H](Cc1ccccc1)C(=O)N1CCOCC1 [X L D F Z phenylacetyl morpholinamide, N-phenylacetyl-Leu-Asp-Phe-morpholinamide] (PhAc-Leu-Asp-Phe-Morpholide)
[3]
  loss of potency after 24 hours: no loss of potency
[4]; [7]
  Cdyn, % Reduction, Early phase: 94.4%
  RL, % Reduction, Early phase: 80.1%
[4]; [8]
  Cdyn, % Reduction, Late phase: 86.6%
  RL, % Reduction, Late phase: 82.6%
[4]; FIG. 4A, 100 mg/kg nebulized
  Cdyn value over six hours after challenge: stayed at about the initial value
[4]; FIG. 4B, 100 mg/kg nebulized
  RL values over six hours after challenge: ≤ 200% of initial value
VLA-4 [5]; Jurkat cells / solid phase-bound CS-1, read-out: absolute IC50 value
  IC50: 180 to 300 nM
VLA-4 [5]; [9]
  RELATIVE POTENCY (relative peptide inhibition of VLA-4 binding CS-1): 844

## CC(C)C[C@H](NC(=O)Cc1ccccc1)C(=O)N[C@@H](CC(=O)O)C(=O)N(Cc1ccccc1)Cc1ccccc1 [X L D Z phenylacetyl dibenzylamide]
VLA-4 [5]; [9]
  RELATIVE POTENCY (relative peptide inhibition of VLA-4 binding CS-1): 0

## CC(C)C[C@H](NC(=O)Cc1ccccc1)C(=O)N[C@@H](CC(=O)O)C(=O)NN [X L D Z phenylacetyl hydrazide] (PhAc-Leu-Asp-NHNH2)
VLA-4 [5]; [9]
  RELATIVE POTENCY (relative peptide inhibition of VLA-4 binding CS-1): 1

## CC(C)C[C@H](NC(=O)Cc1ccccc1)C(=O)N[C@@H](CC(=O)O)C(=O)NCCc1ccccc1 [X L D Z phenylacetyl phenethylamide] (PhAc-Leu-Asp-NHPhenethyl)
VLA-4 [5]; [9]
  RELATIVE POTENCY (relative peptide inhibition of VLA-4 binding CS-1): 19

## CC(C)C[C@H](NC(=O)[C@H](N)Cc1ccccc1)C(=O)N[C@@H](CC(=O)O)C(=O)N[C@H](C(=O)N1CCC[C@@H]1C(=O)O)C(C)C [f L D V p free amine free acid] (H-[dF]LDV[dP]-OH)
VLA-4 [5]
  RELATIVE POTENCY (relative peptide inhibition of VLA-4 binding CS-1): 0

## CCCCCCCCCCCCCCCCCCNC(=O)CCCCCNC(=O)[C@@H]1CCCN1C(=O)[C@H](Cc1ccccc1)NC(=O)[C@H](CC(=O)O)NC(=O)[C@H](CC(C)C)NC(=O)Cc1ccccc1 [phenylacetyl-Leu-Asp-Phe-Pro-NH(CH2)5 C(O)NHC18 H37] (PhAc-LDFP[Ahx]-NHOctadecyl)
Water solubility
  water solubility: not water-soluble
VLA-4 [5]; [9]
  RELATIVE POTENCY (relative peptide inhibition of VLA-4 binding CS-1): 1

## Leu-Asp-Val [LDV]
VLA-4 [6]
  affinity of VLA-4 lower than for the native CS-1 25-mer: at least two

## Z X F L D F p: X = ε-amidocaproyl, Z = Europium label (diethylenetriaminepentaacetatoeuropium), C-terminal amide ({code Z-ε‑amidocaproyl}-FLDF[dP]-NH2; also: europium chelate)
VLA-4 [5]
  binding inhibition better than the standard 10-mer peptide of SEQ ID NO:3: about 120 times
VLA-4 [5]; [9]
  RELATIVE POTENCY (relative peptide inhibition of VLA-4 binding CS-1): 118
